How the values were obtained:
[1] = The drug is tested on Anaerotruncus colihominis strain: DSM17241 for biotransformation. The drug concentrations were measured before and after a 12-h incubation by liquid-chromatography-coupled mass spectrometry (LC–MS); conditions: 2 µM
[2] = bacteroides fragilis, 12 h, 2 µM
Description: The drug is tested on Bacteroides fragilis strain: DS-208 for biotransformation. The drug concentrations were measured before and after a 12-h incubation by liquid-chromatography-coupled mass spectrometry (LC–MS)

[3] = The drug is tested on Ruminococcus lactaris strain: ATCC29176 for biotransformation. The drug concentrations were measured before and after a 12-h incubation by liquid-chromatography-coupled mass spectrometry (LC–MS); conditions: 2 µM
[4] = The drug is tested on Bifidobacterium longum subsp. Infantis strain: CCUG52486 for biotransformation. The drug concentrations were measured before and after a 12-h incubation by liquid-chromatography-coupled mass spectrometry (LC–MS); conditions: 2 µM
[5] = The drug is tested on Bacteroides vulgatus strain: ATCC8482 for biotransformation. The drug concentrations were measured before and after a 12-h incubation by liquid-chromatography-coupled mass spectrometry (LC–MS); conditions: phocaeicola vulgatus, 2 µM
[6] = The drug is tested on Clostridium scindens strain: ATCC35704 for biotransformation. The drug concentrations were measured before and after a 12-h incubation by liquid-chromatography-coupled mass spectrometry (LC–MS); conditions: 2 µM
[7] = bacteroides thetaiotaomicron, 12 h, 2 µM
Description: The drug is tested on Bacteroides thetaiotaomicron strain: VPI-5482 for biotransformation. The drug concentrations were measured before and after a 12-h incubation by liquid-chromatography-coupled mass spectrometry (LC–MS)

[8] = The drug is tested on Parabacteroides merdae strain: ATCC43184 for biotransformation. The drug concentrations were measured before and after a 12-h incubation by liquid-chromatography-coupled mass spectrometry (LC–MS); conditions: 2 µM
[9] = bacteroides intestinalis, 12 h, 2 µM
Description: The drug is tested on Bacteroides intestinalis strain: DSM17393 for biotransformation. The drug concentrations were measured before and after a 12-h incubation by liquid-chromatography-coupled mass spectrometry (LC–MS)

[10] = The drug is tested on Bacteroides xylanisolvens strain: DSM18836 for biotransformation. The drug concentrations were measured before and after a 12-h incubation by liquid-chromatography-coupled mass spectrometry (LC–MS); conditions: 2 µM
[11] = The drug is tested on Bacteroides pectinophilus strain: ATCC43243 for biotransformation. The drug concentrations were measured before and after a 12-h incubation by liquid-chromatography-coupled mass spectrometry (LC–MS); conditions: 2 µM
[12] = bacteroides thetaiotaomicron, 12 h, 2 µM; remark: listed apart in the source
Description: The drug is tested on Bacteroides thetaiotaomicron strain: 3731 for biotransformation. The drug concentrations were measured before and after a 12-h incubation by liquid-chromatography-coupled mass spectrometry (LC–MS)

[13] = bacteroides eggerthii, 12 h, 2 µM
Description: The drug is tested on Bacteroides eggerthii strain: DSM20697 for biotransformation. The drug concentrations were measured before and after a 12-h incubation by liquid-chromatography-coupled mass spectrometry (LC–MS)

[14] = bacteroides stercoris, 12 h, 2 µM
Description: The drug is tested on Bacteroides stercoris strain: ATCC43183 for biotransformation. The drug concentrations were measured before and after a 12-h incubation by liquid-chromatography-coupled mass spectrometry (LC–MS)

[15] = The drug is tested on Collinsella intestinalis strain: DSM13280 for biotransformation. The drug concentrations were measured before and after a 12-h incubation by liquid-chromatography-coupled mass spectrometry (LC–MS); conditions: 2 µM
[16] = bacteroides fragilis, 12 h, 2 µM; remark: listed apart in the source
Description: The drug is tested on Bacteroides fragilis strain: NCTC 9343 for biotransformation. The drug concentrations were measured before and after a 12-h incubation by liquid-chromatography-coupled mass spectrometry (LC–MS)

[17] = parabacteroides johnsonii, 12 h, 2 µM
Description: The drug is tested on Parabacteroides johnsonii strain: DSM18315 for biotransformation. The drug concentrations were measured before and after a 12-h incubation by liquid-chromatography-coupled mass spectrometry (LC–MS)

[18] = bacteroides thetaiotaomicron, 12 h, 2 µM; remark: listed apart in the source
Description: The drug is tested on Bacteroides thetaiotaomicron strain: 7330 for biotransformation. The drug concentrations were measured before and after a 12-h incubation by liquid-chromatography-coupled mass spectrometry (LC–MS)

Compound	Bacterial Biotransformation [1]	Bacterial Biotransformation [2]	Bacterial Biotransformation [3]	Bacterial Biotransformation [4]	Bacterial Biotransformation [5]	Bacterial Biotransformation [6]	Bacterial Biotransformation [7]	Bacterial Biotransformation [8]	Bacterial Biotransformation [9]	Bacterial Biotransformation [10]	Bacterial Biotransformation [11]	Bacterial Biotransformation [12]	Bacterial Biotransformation [13]	Bacterial Biotransformation [14]	Bacterial Biotransformation [15]	Bacterial Biotransformation [16]	Bacterial Biotransformation [17]	Bacterial Biotransformation [18]
CC(C)(C)NC(=O)[C@H]1CC[C@H]2[C@@H]3CC[C@H]4NC(=O)C=C[C@]4(C)[C@H]3CC[C@]12C [FINASTERIDE]	Compound NOT metabolized	Compound metabolized	Compound NOT metabolized	Compound NOT metabolized	Compound metabolized	Compound metabolized	Compound NOT metabolized	Compound NOT metabolized	Compound NOT metabolized	Compound metabolized	Compound NOT metabolized	Compound NOT metabolized	Compound metabolized	Compound NOT metabolized	Compound NOT metabolized	Compound metabolized		
CO[C@]12C[C@@H](COC(=O)c3cncc(Br)c3)CN(C)[C@@H]1Cc1cn(C)c3cccc2c13 [NICERGOLINE]	Compound NOT metabolized	Compound NOT metabolized	Compound NOT metabolized	Compound NOT metabolized	Compound metabolized	Compound NOT metabolized	Compound NOT metabolized	Compound NOT metabolized	Compound NOT metabolized	Compound NOT metabolized	Compound NOT metabolized	Compound NOT metabolized	Compound NOT metabolized	Compound NOT metabolized	Compound NOT metabolized	Compound NOT metabolized	Compound NOT metabolized	Compound NOT metabolized
CN(C)CCC=C1c2ccccc2COc2ccccc21 [DOXEPIN]	Compound NOT metabolized	Compound NOT metabolized	Compound NOT metabolized	Compound NOT metabolized		Compound NOT metabolized	Compound NOT metabolized	Compound NOT metabolized	Compound NOT metabolized			Compound NOT metabolized	Compound NOT metabolized	Compound NOT metabolized	Compound NOT metabolized		Compound NOT metabolized	Compound NOT metabolized
Cc1ccc(NC(=O)c2ccc(CN3CCN(C)CC3)cc2)cc1Nc1nccc(-c2cccnc2)n1 [IMATINIB]	Compound NOT metabolized	Compound NOT metabolized	Compound NOT metabolized		Compound metabolized		Compound NOT metabolized	Compound NOT metabolized	Compound NOT metabolized	Compound metabolized		Compound NOT metabolized	Compound NOT metabolized	Compound NOT metabolized	Compound NOT metabolized		Compound NOT metabolized	Compound NOT metabolized

From ChEMBL document CHEMBL5303573, “Mapping human microbiome drug metabolism by gut bacteria and their genes” (Nature, 2019)
